Laboratory results taken from patent US8946266B2, “Substituted triazole and imidazole derivatives as gamma secretase modulators” (Janssen Pharmaceuticals, Inc., priority 2009, dated 2015).
Counter-ions that a name gives are not always drawn. Like-named read-outs stand apart in the source and are kept apart here.

Key:
[1] = tested on: Aβtotal; assay: γ-secretase-modulating activity, Method 2: Aβtotal Alphalisa in supernatant of SKNBE2 cells carrying APP 695-wild type (Table 3b); type: cell-based; conditions: overnight, read-out: IC50 Aβtot
In short: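 Secreted Aβtotal was quantified by AlphaLISA pairing an N-terminal antibody (JRF/AβN/25) with biotinylated mid-region 4G8. Wild-type APP 695 SKNBE2 cells received serially varied compound overnight at 37 °C; IC50 came from a 4-parameter nonlinear regression of percent of control against log dose.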

[2] = tested on: Aβ42; assay: γ-secretase-modulating activity, Method 2: Aβ42 Alphalisa in supernatant of SKNBE2 cells carrying APP 695-wild type (Table 3b); type: cell-based; conditions: overnight
In short: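 Aβ42 in the supernatant was quantified by AlphaLISA sandwich (JRF/cAβ42/26 with JRF/AβN/25). Cells were wild-type APP695 SKNBE2, exposed to compound overnight at 37° C., 5% CO2. Data were normalised to untreated maximum and fitted with a four-parameter curve to give IC50.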

[3] = tested on: Aβ42; assay: In vivo efficacy, Method 2: brain soluble Aβ42 lowering 4 h after a single oral dose, ELISA (Table 4b); design: species or system mouse; conditions: dose 30 mg/kg oral dosing
From the text: (§1) To determine whether acute administration of an Aβ42 lowering agent would reduce Aβ42 levels in vivo, non-transgenic rodents, e.g. mice or rats were used. Animals treated with the Aβ42 lowering agent were examined and compared to those untreated or treated with vehicle and brain levels of soluble Aβ42 and total Aβ were quantitated by standard techniques, for example, using ELISA. Treatment periods varied from hours (h) to days and were adjusted based on the results of the Aβ42 lowering once a time course of onset of effect could be established.
(§2) A typical protocol for measuring Aβ42 lowering in vivo is shown but it is only one of many variations that could be used to optimize the levels of detectable Aβ. For example, Aβ42 lowering compounds were formulated in 20% of Captisol® (a sulfobutyl ether of β-cyclodextrin) in water or 20% hydroxypropyl β cyclodextrin. The Aβ42 lowering agents were administered as a single oral dose or by any acceptable route of administration to overnight fasted animals. After 4 h, the animals were sacrificed and Aβ42 levels were analysed.
(§3) Blood was collected by decapitation and exsanguinations in EDTA-treated collection tubes. Blood was centrifuged at 1900 g for 10 minutes (min) at 4° C. and the plasma recovered and flash frozen for later analysis. The brain was removed from the cranium and hindbrain. The cerebellum was removed and the left and right hemisphere were separated. The left hemisphere was stored at −18° C. for quantitative analysis of test compound levels. The right hemisphere was rinsed with phosphate-buffered saline (PBS) buffer and immediately frozen on dry ice and stored at −80° C. until homogenization for biochemical assays.
(§4) Mouse brains from non-transgenic animals were resuspended in 8 volumes of 0.4% DEA (diethylamine)/50 mM NaCl containing protease inhibitors (Roche-11873580001 or 04693159001) per gram of tissue, e.g. for 0.158 g brain, add 1.264 ml of 0.4% DEA. All samples were homogenized in the FastPrep-24 system (MP Biomedicals) using lysing matrix D (MPBio #6913-100) at 6 m/s for 20 seconds. Homogenates were centrifuged at 221.300×g for 50 min. The resulting high speed supernatants were then transferred to fresh eppendorf tubes. Nine parts of supernatant were neutralized with 1 part 0.5 M Tris-HCl pH 6.8 and used to quantify Aβtotal and Aβ42.
(§5) To quantify the amount of Aβtotal and Aβ42 in the soluble fraction of the brain homogenates, Enzyme-Linked-Immunosorbent-Assays were used. Briefly, the standards (a dilution of synthetic Aβ1-40 and Aβ1-42, Bachem) were prepared in 1.5 ml Eppendorf tube in Ultraculture, with final concentrations ranging from 10000 to 0.3 pg/ml. The samples and standards were co-incubated with HRPO-labelled N-terminal antibody for Aβ42 detection and with the biotinylated mid-domain antibody 4G8 for Aβtotal detection. 50 μl of conjugate/sample or conjugate/standards mixtures were then added to the antibody-coated plate (the capture antibodies selectively recognize the C-terminal end of Aβ42, antibody JRF/cAβ42/26, for Aβ42 detection and the N-terminus of Aβ, antibody JRF/rAβ/2, for Aβtotal detection). The plate was allowed to incubate overnight at 4° C. in order to allow formation of the antibody-amyloid complex. Following this incubation and subsequent wash steps the ELISA for Aβ42 quantification was finished by addition of Quanta Blu fluorogenic peroxidase substrate according to the manufacturer's instructions (Pierce Corp., Rockford, Ill.). A reading was performed after 10 to 15 min (excitation 320/emission 420).
In this model at least 20% Aβ42 lowering compared to untreated animals would be advantageous.
(§6) The results are shown in Table 4b (dose 30 mg/kg oral dosing): […]

[4] = tested on: Aβtotal; assay: In vivo efficacy, Method 2: brain soluble Aβtotal lowering 4 h after a single oral dose, ELISA (Table 4b); design: species or system mouse; conditions: dose 30 mg/kg oral dosing
From the text: as §1, §2, §3, §4, §5
For Aβtotal detection, a Streptavidine-Peroxidase-Conjugate was added, followed 60 min later by an additional wash step and addition of Quanta Blu fluorogenic peroxidase substrate according to the manufacturer's instructions (Pierce Corp., Rockford, Ill.). A reading was performed after 10 to 15 min (excitation 320 nm/emission 420 nm).
as §6

Row | Structure (SMILES) | melting point | IC50 ([1]; Homo sapiens) | IC50 ([2]; Homo sapiens) | IC50 [1] | Aβ42 (% Ctrl) _Mean [3] | Aβtotal (% Ctrl) _Mean [4] | IC50 [2] | Aβ42 (% Ctrl) _Mean ([3]; 30 mg/kg) | Aβtotal (% Ctrl) _Mean ([4]; 30 mg/kg)
1 | COc1cc(-c2nc(Sc3cccc(C(F)(F)F)c3)n(C)n2)ccc1-n1cnc(C)c1 (as salt: HCl) (hydrate or solvate) [Compound 249] | 78.4 °C | – | – | – | – | – | – | – | –
2 | COc1cc(-c2nc(-c3ccccc3Cl)n(C)n2)ccc1-n1cnc(C)c1 [Compound 2] | 149.3 °C | > 10000 nM | 468 nM | – | – | – | – | – | –
3 | COc1cc(-c2nc3n(n2)CCCC3c2ccccc2C(F)(F)F)ccc1-n1cnc(C)c1 (stereo not drawn) [Compound 10] | 218 °C | 8320 nM | 25 nM | – | – | – | – | – | –
4 | COc1cc(-c2nc3n(n2)CCCN3c2ccccc2C(F)(F)F)ccc1-n1cnc(C)c1 [Compound 18] | 211.6 °C | > 10000 nM | 76 nM | – | – | – | – | – | –
5 | COc1cc(-c2nc(-c3ccc(-n4cnc(C)c4)c(OC)c3)n[nH]2)ccc1Cl [Compound 20] | 262.6 °C | > 10000 nM | 257 nM | – | – | – | – | – | –
6 | COc1cc(-c2nc(C(=O)c3ccc(F)cc3)n(C)n2)ccc1-n1cnc(C)c1 [Compound 21] | 145.3 °C | > 10000 nM | 6920 nM | – | – | – | – | – | –
7 | COc1cc(-c2nc(-c3ccccc3Cl)n(C(C)C)n2)ccc1-n1cnc(C)c1 [Compound 66] | 159 °C | > 10000 nM | 562 nM | – | – | – | – | – | –
8 | COc1cc(-c2nc(-c3cc(F)c(F)c(F)c3)n(C(C)C)n2)ccc1-n1cnc(C)c1 [Compound 84] | 122.23 °C | > 10000 nM | 316 nM | – | – | – | – | – | –
9 | COc1cc(-c2nc(Nc3ccccc3C)n(C)n2)ccc1-n1cnc(C)c1 [Compound 97] | 159.4 °C | > 10000 nM | 49 nM | – | – | – | – | – | –
10 | COc1cc(-c2nc(Nc3ccc(F)cc3C)n(C)n2)ccc1-n1cnc(C)c1 [Compound 130] | 189.7 °C | > 10000 nM | 60 nM | – | – | – | – | – | –
11 | COc1nc(-c2nc(Nc3cc(C(F)(F)F)ccc3F)n(C)n2)ccc1-n1cnc(C)c1 [Compound 154] | 230.1 °C | > 10000 nM | 17 nM | – | – | – | – | – | –
12 | COc1cc(-c2nc(Nc3ccccc3C(F)(F)F)n(C)n2)ccc1-n1cnc(C)c1 [Compound 157] | 159.3 °C | > 15000 nM | 63 nM | – | – | – | – | – | –
13 | COc1cc(-c2nc(Nc3cc(C(C)(C)O)ccc3F)n(C)n2)ccc1-n1cnc(C)c1 [Compound 175] | 193.8 °C | > 10000 nM | 89 nM | – | – | – | – | – | –
14 | COc1ccc(CO)c(Nc2nc(-c3ccc(-n4cnc(C)c4)c(OC)c3)nn2C)c1 [Compound 200] | 235.2 °C | > 10000 nM | 158 nM | – | – | – | – | – | –
15 | COc1cc(-c2nc(Nc3cccc(C(F)(F)F)n3)n(C)n2)ccc1-n1cnc(C)c1 [Compound 236] | 240 °C | > 10000 nM | 575 nM | – | – | – | – | – | –
16 | COc1cc(-c2nc3n(n2)CCCC3c2ccc(F)cc2)ccc1-n1cnc(C)c1 (stereo not drawn) [Compound 251] | 190.5 °C | > 10000 nM | 245 nM | – | – | – | – | – | –
17 | COc1cc(-c2nc3n(n2)CCCC3c2ccc(F)cc2C)ccc1-n1cnc(C)c1 (stereo not drawn) [Compound 258] | 241.8 °C | > 10000 nM | 62 nM | – | – | – | – | – | –

Row | Structure (SMILES) | melting point | IC50 ([1]; Homo sapiens) | IC50 ([2]; Homo sapiens) | IC50 [1] | Aβ42 (% Ctrl) _Mean [3] | Aβtotal (% Ctrl) _Mean [4] | IC50 [2] | Aβ42 (% Ctrl) _Mean ([3]; 30 mg/kg) | Aβtotal (% Ctrl) _Mean ([4]; 30 mg/kg)
18 | COc1cc(-c2nc3n(n2)CCN(C)C3c2ccccc2C(F)(F)F)ccc1-n1cnc(C)c1 (stereo not drawn) [Compound 275] | 154.26 °C | > 10000 nM | 269 nM | – | – | – | – | – | –
19 | COc1cc(-c2nc3n(n2)CCNC3c2ccccc2C(F)(F)F)ccc1-n1cnc(C)c1 (stereo not drawn) [Compound 278] | 183 °C | > 10000 nM | 398 nM | – | – | – | – | – | –
20 | COc1cc(-c2nc3n(n2)CCOC3c2cc(OC(F)(F)F)ccc2F)ccc1-n1cnc(C)c1 (stereo not drawn) [Compound 281] | 232.1 °C | > 10000 nM | 76 nM | – | – | – | – | – | –
21 | COc1cc(-c2nc3nccc(-c4ccccc4C(F)(F)F)n3n2)ccc1-n1cnc(C)c1 [Compound 290] | 191 °C | > 10000 nM | 224 nM | – | – | – | – | – | –
22 | COc1cc(-c2nc3nc(-c4ccccc4C(F)(F)F)ccn3n2)ccc1-n1cnc(C)c1 [Compound 291] | 193.4 °C | 9770 nM | 45 nM | – | – | – | – | – | –
23 | COc1cc(-c2nc3c(-c4ccccc4C(F)(F)F)nccn3n2)ccc1-n1cnc(C)c1 [Compound 294] | 176.9 °C | > 10000 nM | 537 nM | – | – | – | – | – | –
24 | COc1cc(-c2nc(Nc3cc(Br)ccc3F)n(C)n2)ccc1-n1cnc(C)c1 [Compound 303] | – | – | – | > 10000 nM | 33 % Ctrl | 23 % Ctrl | 40 nM | – | –
25 | COc1cc(-c2nc(Nc3cccc(F)c3C)n(C)n2)ccc1-n1cnc(C)c1 [Compound 304] | – | – | – | > 10000 nM | 48 % Ctrl | 11 % Ctrl | 42 nM | – | –
26 | COc1cc(-c2nc3n(n2)CCOC3c2ccccc2C(F)(F)F)ccc1-n1cnc(C)c1 (stereo not drawn) [Compound 306] | – | – | – | > 10000 nM | – | – | 71 nM | 22 % Ctrl | −2 % Ctrl
27 | COc1cc(-c2nc(Nc3cc(OC(C)C)ccc3F)n(C)n2)ccc1-n1cnc(C)c1 [Compound 307] | – | – | – | > 10000 nM | 19 % Ctrl | −2 % Ctrl | 8 nM | – | –
28 | COc1cc(-c2nc(Nc3ccccc3OC(F)F)n(C)n2)ccc1-n1cnc(C)c1 [Compound 310] | – | – | – | > 10000 nM | 45 % Ctrl | 20 % Ctrl | 44 nM | – | –
29 | COc1cc(-c2nc3n(n2)CCC[C@H]3c2ccc(F)cc2C)ccc1-n1cnc(C)c1.Cl [Compound 315] | – | – | – | > 10000 nM | 49 % Ctrl | 10 % Ctrl | 29 nM | – | –
30 | COc1c(-n2cnc(C)c2)ccc(-c2nc(Nc3cc(C(F)(F)F)ccc3F)n(C)n2)c1F [Compound 320] | – | – | – | > 10000 nM | 23 % Ctrl | 8 % Ctrl | 45 nM | – | –
31 | Cc1cn(-c2ccc(-c3nc(Nc4cc(C(F)(F)F)ccc4F)n(C)n3)cc2C#N)cn1 [Compound 322] | – | – | – | > 15000 nM | −5 % Ctrl | −4 % Ctrl | 36 nM | – | –
32 | COc1nc(-c2nc(N(C)c3cc(C(F)(F)F)ccc3F)n(C)n2)ccc1-n1cnc(C)c1 [Compound 337] | – | – | – | > 10000 nM | 30 % Ctrl | 3 % Ctrl | 263 nM | – | –
33 | COc1nc(-c2nc3n(n2)CCCC3c2cc(C(F)(F)F)ccc2C)ccc1-n1cnc(C)c1 (stereo not drawn) [Compound 343] | – | – | – | > 10000 nM | 64 % Ctrl | 18 % Ctrl | 15 nM | – | –
34 | COc1cc(C(F)(F)F)cc(Nc2nc(-c3ccc(-n4cnc(C)c4)c(OC)n3)nn2C)c1F [Compound 353] | – | – | – | > 10000 nM | 63 % Ctrl | 2 % Ctrl | 17 nM | – | –
